# ChEMBL document CHEMBL1150930, “Metabolism of rosmarinic acid in rats” (J Nat Prod, 1998)
# Experiments:
# Parameters in all cases: dose 200 mg/kg, route oral
# Rattus norvegicus [1] = experiment: Metabolic stability in Sprague-Dawley rat assessed as urinary excretion of trans-caffeic acid level at 200 mg/kg, po after 0 to 12 hrs by HPLC; format: ADME, organism-based, Urine; conditions: in vivo
# Rattus norvegicus [2] = experiment: Metabolic stability in Sprague-Dawley rat assessed as urinary excretion of trans-ferulic acid 4-O-sulfate level at 200 mg/kg, po after 0 to 8 hrs by HPLC; format: ADME, organism-based, Urine; conditions: in vivo
# Rattus norvegicus [3] = experiment: Metabolic stability in Sprague-Dawley rat assessed as urinary excretion of trans-caffeic acid 4-O-sulfate level at 200 mg/kg, po after 0 to 24 hrs by HPLC; format: ADME, organism-based, Urine; conditions: in vivo
# Rattus norvegicus [4] = experiment: Metabolic stability in Sprague-Dawley rat assessed as urinary excretion of trans-caffeic acid 4-O-sulfate level at 200 mg/kg, po after 0 to 8 hrs by HPLC; format: ADME, organism-based, Urine; conditions: in vivo
# Rattus norvegicus [5] = experiment: Metabolic stability in Sprague-Dawley rat assessed as urinary excretion of total metabolites at 200 mg/kg, po after 0 to 72 hrs by HPLC; format: ADME, organism-based, Urine; conditions: in vivo
# [6] = Metabolic stability in Sprague-Dawley rat assessed as urinary excretion of unchanged drug level at 200 mg/kg, po after 0 to 72 hrs by HPLC; format: ADME, organism-based; conditions: urine, read-out: Activity
# Rattus norvegicus [7] = experiment: Metabolic stability in Sprague-Dawley rat assessed as urinary excretion of trans-caffeic acid 4-O-sulfate level at 200 mg/kg, po after 0 to 12 hrs by HPLC; format: ADME, organism-based, Urine; conditions: in vivo
# Rattus norvegicus [8] = experiment: Metabolic stability in Sprague-Dawley rat assessed as urinary excretion of trans-caffeic acid level at 200 mg/kg, po after 0 to 72 hrs by HPLC; format: ADME, organism-based, Urine; conditions: in vivo
# Rattus norvegicus [9] = experiment: Metabolic stability in Sprague-Dawley rat assessed as urinary excretion of trans-m-coumaric acid level at 200 mg/kg, po after 0 to 8 hrs by HPLC; format: ADME, organism-based, Urine; conditions: in vivo
# Rattus norvegicus [10] = experiment: Metabolic stability in Sprague-Dawley rat assessed as urinary excretion of total metabolites at 200 mg/kg, po after 0 to 48 hrs by HPLC; format: ADME, organism-based, Urine; conditions: in vivo
# Rattus norvegicus [11] = experiment: Metabolic stability in Sprague-Dawley rat assessed as urinary excretion of m-hydroxyphenyl-propionic acid level at 200 mg/kg, po after 0 to 12 hrs by HPLC; format: ADME, organism-based, Urine; conditions: in vivo
# [12] = Metabolic stability in Sprague-Dawley rat assessed as urinary excretion of unchanged drug level at 200 mg/kg, po after 0 to 36 hrs by HPLC; format: ADME, organism-based; conditions: urine, read-out: Activity
# Rattus norvegicus [13] = experiment: Metabolic stability in Sprague-Dawley rat assessed as urinary excretion of trans-caffeic acid level at 200 mg/kg, po after 0 to 48 hrs by HPLC; format: ADME, organism-based, Urine; conditions: in vivo
# Rattus norvegicus [14] = experiment: Metabolic stability in Sprague-Dawley rat assessed as urinary excretion of total metabolites at 200 mg/kg, po after 0 to 4 hrs by HPLC; format: ADME, organism-based, Urine; conditions: in vivo
# Rattus norvegicus [15] = experiment: Metabolic stability in Sprague-Dawley rat assessed as urinary excretion of trans-ferulic acid 4-O-sulfate level at 200 mg/kg, po after 0 to 72 hrs by HPLC; format: ADME, organism-based, Urine; conditions: in vivo
# Rattus norvegicus [16] = experiment: Metabolic stability in Sprague-Dawley rat assessed as urinary excretion of trans-caffeic acid level at 200 mg/kg, po after 0 to 24 hrs by HPLC; format: ADME, organism-based, Urine; conditions: in vivo
# [17] = Metabolic stability in Sprague-Dawley rat assessed as urinary excretion of unchanged drug level at 200 mg/kg, po after 0 to 8 hrs by HPLC; format: ADME, organism-based; conditions: urine, read-out: Activity
# Rattus norvegicus [18] = experiment: Metabolic stability in Sprague-Dawley rat assessed as urinary excretion of trans-m-coumaric acid 3-O-sulfate level at 200 mg/kg, po after 0 to 72 hrs by HPLC; format: ADME, organism-based, Urine; conditions: in vivo
# Rattus norvegicus [19] = experiment: Metabolic stability in Sprague-Dawley rat assessed as urinary excretion of trans-ferulic acid 4-O-sulfate level at 200 mg/kg, po after 0 to 48 hrs by HPLC; format: ADME, organism-based, Urine; conditions: in vivo
# Rattus norvegicus [20] = experiment: Metabolic stability in Sprague-Dawley rat assessed as urinary excretion of m-hydroxyphenyl-propionic acid level at 200 mg/kg, po after 0 to 36 hrs by HPLC; format: ADME, organism-based, Urine; conditions: in vivo
# Rattus norvegicus [21] = experiment: Metabolic stability in Sprague-Dawley rat assessed as urinary excretion of trans-caffeic acid 4-O-sulfate level at 200 mg/kg, po after 0 to 48 hrs by HPLC; format: ADME, organism-based, Urine; conditions: in vivo
# Rattus norvegicus [22] = experiment: Metabolic stability in Sprague-Dawley rat assessed as urinary excretion of trans-caffeic acid level at 200 mg/kg, po after 0 to 4 hrs by HPLC; format: ADME, organism-based, Urine; conditions: in vivo
# Rattus norvegicus [23] = experiment: Metabolic stability in Sprague-Dawley rat assessed as urinary excretion of trans-m-coumaric acid level at 200 mg/kg, po after 0 to 12 hrs by HPLC; format: ADME, organism-based, Urine; conditions: in vivo
# Rattus norvegicus [24] = experiment: Metabolic stability in Sprague-Dawley rat assessed as urinary excretion of trans-m-coumaric acid 3-O-sulfate level at 200 mg/kg, po after 0 to 12 hrs by HPLC; format: ADME, organism-based, Urine; conditions: in vivo
# Rattus norvegicus [25] = experiment: Metabolic stability in Sprague-Dawley rat assessed as urinary excretion of trans-ferulic acid 4-O-sulfate level at 200 mg/kg, po after 0 to 12 hrs by HPLC; format: ADME, organism-based, Urine; conditions: in vivo
# Rattus norvegicus [26] = experiment: Metabolic stability in Sprague-Dawley rat assessed as urinary excretion of m-hydroxyphenyl-propionic acid level at 200 mg/kg, po after 0 to 8 hrs by HPLC; format: ADME, organism-based, Urine; conditions: in vivo
smiles,measurement,setting,value
O=C(/C=C/c1ccc(O)c(O)c1)O[C@H](Cc1ccc(O)c(O)c1)C(=O)O [ROSMARINIC ACID],Activity,Rattus norvegicus [1],0.037%
same,Activity,Rattus norvegicus [2],0.284%
same,Activity,Rattus norvegicus [3],0.149%
same,Activity,Rattus norvegicus [4],0.124%
same,Activity,Rattus norvegicus [5],31.836%
same,dose excreted,[6],0.077%
same,Activity,Rattus norvegicus [7],0.139%
same,Activity,Rattus norvegicus [8],0.117%
same,Activity,Rattus norvegicus [9],0.015%
same,Activity,Rattus norvegicus [10],31.836%
same,Activity,Rattus norvegicus [11],5.252%
same,dose excreted,[12],0.077%
same,Activity,Rattus norvegicus [13],0.117%
same,Activity,Rattus norvegicus [14],0.17%
same,Activity,Rattus norvegicus [15],0.581%
same,Activity,Rattus norvegicus [16],0.063%
same,dose excreted,[17],0.077%
same,Activity,Rattus norvegicus [18],12.137%
same,Activity,Rattus norvegicus [19],0.581%
same,Activity,Rattus norvegicus [20],17.43%
same,Activity,Rattus norvegicus [21],0.154%
same,Activity,Rattus norvegicus [22],0.01%
same,Activity,Rattus norvegicus [23],0.1%
same,Activity,Rattus norvegicus [24],0.174%
same,Activity,Rattus norvegicus [25],0.462%
same,Activity,Rattus norvegicus [26],0.949%
